Experimental data from patent US20230204598A1, “MAM-SPECIFIC FLUORESCENCE MARKER AND USE THEREOF” (POSTECH ACADEMY-INDUSTRY FOUNDATION, priority 2016, published 2023).

Test system: MAM structure in HEK293 cells
Test: Verification of MAM specificity of the fluorescent marker using a drug (MAM suppressor)
Type: cell-based
Details: HEK293 cells transfected with the MAM-specific bimolecular fluorescent marker; 150 μM added to the cell culture solution; incubated for 3 or 24 hours; fluorescence microscope (FIG. 7)
Description: HEK293 cells transfected in Example 4-1 were incubated in DMEM containing a 10% fetal bovine serum (FBS) for 24 hours under conditions of 37° C. and 5% CO2. Afterward, the culture solution was washed with PBS, and then cells were fixed by treatment with a 4% para-formaldehyde cell fixing solution for 10 minutes. The cell fixing solution was sufficiently washed with PBS, and a cover glass was immobilized on a slide glass using a mounting solution, thereby manufacturing a microscope sample. […]
The MAM-specific bimolecular fluorescent marker was transfected into HEK293 cells in the same manner as in Example 5-1, 150 μM of methyl-β-cyclodextrin known as a MAM suppressor was added to the cell culture solution, and the cells were incubated for 3 or 24 hours under cell culture conditions, thereby manufacturing a microscope sample, and then the microscope sample was observed using a fluorescence microscope.

methyl-β-cyclodextrin
fluorescence level of the MAM-specific fluorescent marker: significantly reduced
